Some results are limits rather than exact numbers.

This assay relates to Rattus norvegicus. Briefly: Antinociceptive activity in icv dosed Sprague-Dawley rat assessed as latency to hind lift after 10 mins by hot plate test. It is filed as functional.
Take `CN/C(=N/C#N)NCCCCCCc1ccc(CN(C)C)o1`: the ED50 stood at 120 nmol. With `CN(C)Cc1ccc(CCCCNC(=O)c2ccccc2)o1`, the ED50 was 203 nmol. With `CC(=O)NCCCCc1ccc(CN(C)C)o1`, the ED50 is on record as 126 nmol. On to `CN/C(=C/[N+](=O)[O-])NCCCCCCc1ccc(CN(C)C)o1`, for which the ED50 is recorded as 25 nmol. As for `CN(C)Cc1ccc(CCCCCCNC(=O)Nc2ccccc2)o1`, the figure is 284 nmol; as for `CN(C)Cc1ccc(CCCCc2ccccc2)o1`, 143 nmol.

Turning to `CN/C(=N/C#N)NCCCCc1ccc(CN(C)C)o1`, the ED50 is 159 nmol. To `CN(C)Cc1ccc(CCCCN)o1` belongs 689 nmol; to `CN(C)Cc1ccc(CCCCNc2ccccc2)o1`, 131 nmol. To `CN/C(=C/[N+](=O)[O-])NCCCCc1ccc(CN(C)C)o1` belongs 111 nmol; to `CN(C)Cc1ccc(CCCCCCNC(=O)Nc2ccc(I)cc2)o1`, over 149 nmol; to `CN(C)Cc1ccc(CCCCNC(=O)Nc2ccc(I)cc2)o1`, over 226 nmol.

These data come from ChEMBL document CHEMBL1139809, “Antinociceptive activity of furan-containing congeners of improgan and ranitidine” (2007).
